# Test results from patent US20050119180A1, “Use of angiotensin 1-7 for enhancing cardiac function” (priority 2002, published 2005).
# Columns and labels:
# [1] = tested on: male Sprague-Dawley rats with myocardial infarction (left coronary artery ligation); experiment: General characteristics and histology after eight weeks of treatment in rat coronary artery ligation (MI) model; format: in vivo
# Procedure: (§1) The Animal Research Committee of the University of Groningen approved this study. Left coronary artery ligations were performed in 39 male Sprague-Dawley rats weighing 250 to 300 g (Harlan; Zeist, the Netherlands).^14 Perioperative mortality was 49%. Two weeks after induction of MI, rats were randomly allocated to intravenous infusion of either Ang-(1-7) (24 μg/kg per hour; n=10) or saline (n=10) by osmotic minipumps (Alzet 2004). Sham-operated controls (n=10) received saline. After eight weeks of treatment, hemodynamic studies were performed under isoflurane anesthesia with a microtip pressure transducer,^15 coronary flow was measured in a Langendorff setup,^14 endothelial function was tested in isolated aortic rings,^14 and plasma Ang-(1-7) levels were measured by radioimmunoassay.^16
# Midventricular slices were processed for histochemical analysis. Infarct size was determined on picrosirius red/fast green-stained sections and was expressed as the percentage of scar length of total left ventricular circumference.^14 Rats with infarcts smaller than 20% were excluded (n=3 for Ang-(1-7) and n=1 for saline-treated rats). Capillary density was determined on sections stained with biotin-labeled Griffonia siinplicifolia lectin I (GSL-I) and hematoxylin and was expressed as the number of capillaries per mm^2. Myocyte cross-sectional area was measured on hematoxylin/eosin-stained sections.
# Data are presented as mean±SEM. Statistical analysis between the groups was performed by one-way ANOVA followed by Bonferroni's t test. Differences in dose-response curves were tested by ANOVA for repeated measures with Greenhouse-Geisser correction for asphericity. Differences were considered significant at P<0.05.
# [2] = Plasma Ang-(1-7) levels by radioimmunoassay at end of intravenous infusion; format: in vivo, rat; conditions: MI rats, iv infusion 24 μg/kg per hour
# Procedure: as §1
# [3] = tested on: hearts of infarcted rats (Langendorff setup); experiment: Ex vivo coronary flow in a Langendorff setup, hearts of treated MI rats; design: species or system rat
# Procedure: as §1
# (§2) After eight weeks of treatment, cardiac function was measured in vivo in anesthetized rats. […] Coronary flow was measured ex vivo in a Langendorff setup. […] Coronary endothelial function and maximal coronary flow were tested by a two-minute infusion of 3×10^−8 mol/L bradykinin and 10^−5 mol/L adenosine, respectively.
# [4] = tested on: isolated aortic rings of infarcted rats; experiment: Endothelium-dependent relaxation in isolated aortic rings of treated MI rats; format: in vivo, rat; conditions: aortic rings of MI rats after eight weeks of Ang-(1-7); P<0.05 versus MI control
# Procedure: as §1
# Endothelial dysfunction is a key feature in heart failure.^14 To examine the effects of Ang-(1-7) treatment on this aspect of cardiac failure, we investigated endothelium-dependent relaxation in isolated aortic rings. Phenylephrine elicited similar contractile responses in all three groups (data not shown). […] The relaxation in response to the endothelium independent vasodilator NaNO2 (10^−2 mol/L) was equal in the three groups (data not shown).
# [5] = tested on: male Sprague-Dawley rats with myocardial infarction (left coronary artery ligation); experiment: In vivo hemodynamic studies under isoflurane anesthesia with microtip pressure transducer in MI rats; design: species or system rat
# Procedure: as §1, §2
# [6] = Ang-(1-7) 24 μg/kg per hour iv, eight weeks, mean ± SEM
smiles,measurement,setting,value
"CC[C@H](C)[C@H](NC(=O)[C@H](Cc1ccc(O)cc1)NC(=O)[C@@H](NC(=O)[C@H](CCCNC(=N)N)NC(=O)[C@@H](N)CC(=O)O)C(C)C)C(=O)N[C@@H](Cc1c[nH]cn1)C(=O)N1CCC[C@H]1C(=O)O [Ang-(1-7), angiotensin-(1-7)]",capillary density,"[1]; Ang-(1-7) 24 μg/kg per hour iv, eight weeks, GSL-I lectin stain, mean ± SEM",2578 ± 176 N/mm^2
same,myocyte cross-sectional area,"[1]; Ang-(1-7) 24 μg/kg per hour iv, eight weeks, hematoxylin/eosin-stained sections, mean ± SEM",409 ± 21
same,LVW/BW (left ventricular weight body weight ratio),[1]; [6],3.42 ± 0.10 mg/g
same,infarct size (percentage of scar length of total left ventricular circumference),[1]; [6],29.6 ± 3.3%
same,"myocyte cross-sectional area increase after infarction, in words",[1]; eight weeks of Ang-(1-7),attenuated to a nonsignificant level
same,"capillary density versus saline-treated MI group, in words",[1]; eight weeks of treatment,did not differ
same,"infarct size versus saline-treated MI group, in words",[1]; eight weeks of treatment,did not differ
same,[Ang-(1-7)] plasma concentration of angiotensin-(1-7),"[2]; end of eight weeks of treatment, mean ± SEM",917.8 ± 194.1 pmol/L
same,increase of plasma levels of the peptide compared with MI controls,[2]; end of treatment,40 fold
same,level at time molar at 1344 h,"[2]; male, Sprague-Dawley, rat, plasma, 24 ug/kg per hour, end of eight weeks of treatment, mean ± SEM, read-out: [Ang-(1-7)] plasma concentration of angiotensin-(1-7)",0.918 ± 0.194 nM
same,"baseline coronary flow compared with sham-operated hearts, in words","[3]; Langendorff, MI rats after eight weeks of Ang-(1-7)",almost completely preserved
same,"maximal coronary flow after adenosine infusion compared with sham, in words","[3]; Langendorff, adenosine 10^−5 mol/L, MI rats after eight weeks of Ang-(1-7)",the difference did not reach statistical significance
same,"bradykinin-dependent coronary flow compared with sham, in words","[3]; Langendorff, bradykinin 3×10^−8 mol/L, MI rats after eight weeks of Ang-(1-7)",not significantly impaired
same,"Ex vivo coronary flow, baseline","[3]; hearts of MI rats after eight weeks of Ang-(1-7) 24 μg/kg per hour iv, baseline",8.2 ± 0.6 ml/min per g ventricular weight
same,"Ex vivo coronary flow, adenosine 10^−5 M","[3]; hearts of MI rats after eight weeks of Ang-(1-7), two-minute infusion of adenosine 10^−5 M (maximal coronary flow)",12.3 ± 0.8 ml/min per g ventricular weight
same,"Ex vivo coronary flow, bradykinin 3 × 10^−8 M","[3]; hearts of MI rats after eight weeks of Ang-(1-7), two-minute infusion of bradykinin 3 × 10^−8 M (coronary endothelial function)",11.1 ± 0.7 ml/min per g ventricular weight
same,"metacholine-induced relaxation of phenylephrine pre-contracted aortic rings, in words",[4],identical to sham rats
same,"mean arterial pressure, in words","[5]; MI rats infused with Ang-(1-7), eight weeks",an increase in mean arterial pressure was found
same,reduction in left ventricular end-diastolic pressure,"[5]; MI rats, eight weeks of Ang-(1-7) treatment",40%
same,"cardiac function (hemodynamic parameters LVP, LVEDP, MAP, +dP/dt, −dP/dt) compared with sham, in words",[5]; anesthetized MI rats after eight weeks of treatment,"none of these parameters were significantly deteriorated, except the systolic dP/dt"
